The target of data set [1] is T1, 7β-HSDH obtainable from Collinsella aerofaciens DSM 3979 (Collinsella aerofaciens, UniProt A4ECA9).
T1 sequence (A4ECA9 1-263): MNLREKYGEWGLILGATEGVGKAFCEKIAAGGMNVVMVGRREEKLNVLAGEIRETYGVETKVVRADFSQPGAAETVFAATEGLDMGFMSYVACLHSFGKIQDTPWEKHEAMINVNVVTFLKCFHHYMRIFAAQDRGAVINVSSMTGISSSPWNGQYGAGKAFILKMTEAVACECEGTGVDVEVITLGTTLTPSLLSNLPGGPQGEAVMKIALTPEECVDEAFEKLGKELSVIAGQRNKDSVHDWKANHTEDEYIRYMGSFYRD
Kind of data set: Kinetic parameters of 7β-HSDH for substrates/cofactors.

Data set [2] concerns E. coli BL21(DE3) Δ7α-HSDH. The data set can be described thus: Incubation of cholic acid with knockout strain culture, HPLC detection of the oxidation product. The class given is cell-based. The following applies: 20 mM cholic acid added to 5 ml of culture.
A further data set relates to E. coli BL21(DE3). Kind of data set: Incubation of cholic acid with E. coli culture, HPLC detection of the oxidation product. The conditions noted are these: 20 mM cholic acid added to 5 ml of culture. In kind it is cell-based.
Substrate in data set [3]: C[C@H](CCC(=O)O)[C@H]1CC[C@H]2[C@@H]3C(=O)C[C@@H]4CC(=O)CC[C@]4(C)[C@H]3CC(=O)[C@]12C
Kind of data set: purified protein, by the assay type. The conditions noted are these: other: substrate/cofactor of 7β-HSDH.

Substrate in data set [4]: C[C@H](CCC(=O)O)[C@H]1CC[C@H]2[C@@H]3[C@@H](O)C[C@@H]4C[C@H](O)CC[C@]4(C)[C@H]3CC[C@]12C
Kind of data set: purified protein, by the assay type. The conditions noted are these: other: substrate/cofactor of 7β-HSDH.

Consider 3 molecules from patent US9096825B2, “7 α-hydroxysteroid dehydrogenase knockout mutants and use therefor” (Pharmazell GmbH, priority 2010, dated 2015).

Take `C[C@H](CCC(=O)O)[C@H]1CC[C@H]2[C@@H]3C(=O)C[C@@H]4C[C@H](O)CC[C@]4(C)[C@H]3CC[C@]12C` [7-keto-LCA, 7-Ketolithocholic acid]: the kcat in data set [1] is 950.77 1 μmol/(μmol × min). The Vmax in data set [1] (1 U = 1 μmol/min) was found to be 30.77 U/mg protein.
For the molecule `C[C@H](CCC(=O)O)[C@H]1CC[C@H]2[C@@H]3[C@H](O)C[C@@H]4C[C@H](O)CC[C@]4(C)[C@H]3C[C@H](O)[C@]12C` [cholic acid, Cholic acid], in data set [2], the “oxidation product 7-keto-3,12-dihydroxycholanic acid detected by HPLC” value is on record as “No oxidation product”. Moreover, the “7α-HSDH activity against cholic acid (oxidation to 7-keto-3,12-dihydroxycholanic acid)” value in the data set with E. coli BL21(DE3) is “clearly showed 7α-HSDH activity”.

B1: 7β-HSDH obtainable from Collinsella aerofaciens DSM 3979 (Collinsella aerofaciens ATCC 25986) (protein)
chain: MNLREKYGEWGLILGATEGVGKAFCEKIAAGGMNVVMVGRREEKLNVLAGEIRETYGVETKVVRADFSQPGAAETVFAATEGLDMGFMSYVACLHSFGKIQDTPWEKHEAMINVNVVTFLKCFHHYMRIFAAQDRGAVINVSSMTGISSSPWNGQYGAGKAFILKMTEAVACECEGTGVDVEVITLGTTLTPSLLSNLPGGPQGEAVMKIALTPEECVDEAFEKLGKELSVIAGQRNKDSVHDWKANHTEDEYIRYMGSFYRD
Usually Km stands for the concentration of substrate that gives half-maximal velocity. As to B1, in data set [3], the Km was 9.23 µM and the Vmax was 28.3 µmol/min/mg. Besides, in data set [4], the Km amounted to 6.23 µM and the Vmax was 38.2 µmol/min/mg.
